Measured values: article PMC11460632, “Chemical modification of hyaluronan oligosaccharides differentially modulates hyaluronan–hyaladherin interactions” (The Journal of Biological Chemistry, 2024)
Like-named read-outs stand apart in the source and are kept apart here.

Tests used:
Link_TSG6 = target: T1, Link_TSG6 (Homo sapiens, UniProt P98066); test: ITC of HA oligosaccharides binding to Link_TSG6; details: for N / ΔG / ΔH / −TΔS / Kd: 25 °C, 5 mM MES pH 6.0, mean ± SEM; for N: 0.029 mM Link_TSG6, 0.29 mM oligosaccharide; for N / Kd: four titrations; for Kd: read-out: KD; for % Binding affinity Link_TSG6: Table 6, relative to unmodified oligosaccharide of the same length, by ITC
T1 construct: made in house
T1 sequence (P98066 36-129 limits assumed): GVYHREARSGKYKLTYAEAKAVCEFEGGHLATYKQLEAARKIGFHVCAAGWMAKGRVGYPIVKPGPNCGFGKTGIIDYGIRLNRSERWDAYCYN
Method: ITC experiments were performed using a MicroCal PEAQ-ITC instrument (Malvern Instruments). Oligosaccharide stock solutions were prepared at 0.29 mM (in 5 mM MES, pH 6.0) and injected (18 × 2 μl with 120 s spacing between injections) into the cell containing ∼200 μl Link_TSG6 (0.029 mM) in matched buffer at 25 °C. Data were fit to a one site binding model, after subtracting the heats from the last three injections to account for heat of dilution of the oligosaccharide into buffer. Each oligosaccharide was analyzed in four independently performed ITC experiments.

hisCD44_HABD^20–169 = target: T2, hisCD44_HABD^20–169 (Homo sapiens, UniProt P16070); test: MST of HA oligosaccharides binding to hisCD44_HABD^20–169; details: for Kd: 10 mM Hepes pH 7.5, 150 mM NaCl, 0.05% Tween-20, 25 °C, three titrations, read-out: KD; for % Binding affinity hisCD44_HABD^20–169: Table 6, relative to unmodified oligosaccharide of the same length, by MST
T2 construct: A novel construct consisting of residues 20 to 169 of human CD44 and an N-terminal six-histidine tag; made in house
T2 sequence (P16070 20-169): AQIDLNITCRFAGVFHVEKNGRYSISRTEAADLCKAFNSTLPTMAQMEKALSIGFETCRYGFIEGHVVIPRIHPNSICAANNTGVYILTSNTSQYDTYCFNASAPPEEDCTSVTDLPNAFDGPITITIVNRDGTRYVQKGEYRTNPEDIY
Method: For hisCD44_HABD^20–169, interactions with HA oligosaccharides were assessed using MST. Protein (200 nM) was labeled with 5 μM red-Tris-NTA-650 dye following the manufacturer’s instructions in 10 mM Hepes, pH 7.4, 150 mM NaCl, 0.05% (v/v) Tween-20 (interaction buffer). Stock solutions of HA oligosaccharides (5 mM in interaction buffer) were serially diluted (1:1 in interaction buffer) 16 times before each concentration was mixed with an equal volume of labeled protein (10 nM final concentration hisCD44_HABD^20–169). Samples were loaded into standard glass capillaries (NanoTemper) and thermophoresis measured at 25 °C (with active temperature control) using a Monolith NT.115pico instrument (NanoTemper) running NT Control software (version 1.0.1). All experiments were performed in triplicate and data analyzed with the “KD fit model” in the NT Analysis software (version 2.0.2).

recombinant human TSG-6 = target: T3, recombinant human TSG-6 (Homo sapiens, UniProt P19827+P98066); test: In vitro HC-transfer assay (IαI + rhTSG-6, Western blot anti-HC1); format: biochemical; details: 15 μM HA, 1.8 μM IαI, rhTSG-6, 2 h at 37 °C; for Substrate for HC transfer: Table 6
T3 construct: TSG-6–mediated HC-transfer assays (using full-length TSG6); purchased R&D Systems
T3 sequence (P98066 18-277): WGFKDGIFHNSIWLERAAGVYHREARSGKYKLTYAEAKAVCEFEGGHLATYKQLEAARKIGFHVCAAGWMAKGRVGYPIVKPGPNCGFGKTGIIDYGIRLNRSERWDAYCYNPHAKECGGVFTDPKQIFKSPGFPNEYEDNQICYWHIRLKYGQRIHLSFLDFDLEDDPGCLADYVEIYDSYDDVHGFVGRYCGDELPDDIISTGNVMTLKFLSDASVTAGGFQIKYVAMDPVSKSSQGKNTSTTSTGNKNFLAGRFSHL
T3 sequence (P19827 35-672 limits assumed): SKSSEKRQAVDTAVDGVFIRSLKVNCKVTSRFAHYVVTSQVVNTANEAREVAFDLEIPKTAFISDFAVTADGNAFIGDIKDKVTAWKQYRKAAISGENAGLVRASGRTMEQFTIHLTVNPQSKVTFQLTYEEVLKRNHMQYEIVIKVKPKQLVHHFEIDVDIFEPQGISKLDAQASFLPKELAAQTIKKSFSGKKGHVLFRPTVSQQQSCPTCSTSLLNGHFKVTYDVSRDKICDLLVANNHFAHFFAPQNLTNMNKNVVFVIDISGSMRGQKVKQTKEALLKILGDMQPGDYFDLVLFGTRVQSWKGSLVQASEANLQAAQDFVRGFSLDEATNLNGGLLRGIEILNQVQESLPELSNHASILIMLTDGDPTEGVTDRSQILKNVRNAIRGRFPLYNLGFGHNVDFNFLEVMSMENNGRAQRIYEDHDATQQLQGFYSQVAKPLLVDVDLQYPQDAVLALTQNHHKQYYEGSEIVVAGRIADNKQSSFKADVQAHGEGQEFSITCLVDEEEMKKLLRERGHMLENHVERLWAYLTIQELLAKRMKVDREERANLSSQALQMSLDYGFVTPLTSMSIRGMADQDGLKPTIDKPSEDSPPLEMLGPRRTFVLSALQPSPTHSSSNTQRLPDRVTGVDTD
Method: Covalent transfer of HC from IαI onto unmodified and chemically modified HA oligosaccharides was analyzed using the assay described previously ([26]). All reactions were performed using a buffer of 20 mM Hepes, pH 7.5, 150 mM NaCl, and 5 mM MgCl2. In a “standard” assay, HA oligosaccharides were at 15 μM, human IαI ([97]) 1.8 at μM (based on a molecular weight of 180 kDa), and recombinant human TSG-6 (R&D Systems) at 2.8 μM (based on a molecular weight of 35 kDa). Reaction mixtures were analyzed by SDS-PAGE using 4 to 12% bis-tris polyacrylamide gels (Invitrogen). For Western blot analysis, proteins were transferred onto nitrocellulose membrane (GE Healthcare) and incubated with antisera against HC1 (CP7, 1:10,000; ([98])). Bound primary antibody was detected using goat-anti-rabbit IgG conjugated to IR dye (LI-COR Biosciences) and blots imaged using an Odyssey Clx near-IR fluorescence imaging system (LICOR Biosciences).

CC(=O)N[C@H]1[C@H](O[C@H]2[C@H](O)[C@@H](O)[C@H](O[C@H]3[C@H](O)[C@@H](CO)O[C@@H](O[C@H]4[C@H](O)[C@@H](O)[C@H](O[C@H]5[C@H](O)[C@@H](CO)OC(O)[C@@H]5NC(C)=O)O[C@@H]4C(=O)O)[C@@H]3NC(C)=O)O[C@@H]2C(=O)O)O[C@H](CO)[C@@H](O)[C@@H]1O[C@@H]1O[C@H](C(=O)O)[C@@H](O)[C@H](O)[C@H]1O (stereo partly shown) [HA6^AN, reference compound]
N (Link_TSG6; Table 1, ITC): 1.04 ± 0.04 | ΔG (Link_TSG6; Table 1, ITC): -8.13 ± 0.02 kcal/mol | ΔH (Link_TSG6; Table 1, ITC): -8.29 ± 0.19 kcal/mol | −TΔS (Link_TSG6; Table 1, ITC): 0.162 ± 0.21 kcal/mol | Kd (Link_TSG6; Table 1, ITC): 1.09 ± 0.04 µM | −TΔS (Link_TSG6; Table 4, ITC): 0.162 ± 0.21 kcal•mol^a1 | % Binding affinity Link_TSG6 (Link_TSG6): 100% | % HAn^AN: percentage of binding affinity (KB) compared to the unmodified oligosaccharide of the same length (hisCD44_HABD^20–169; Table 2, MST): 100% | Kd (hisCD44_HABD^20–169; Table 2, MST, mean (±SD)): 103 µM | % HAx^AN: percentage of binding affinity (KB) compared to the unmodified oligosaccharide of the same length (hisCD44_HABD^20–169; Table 5, MST): 100% | % Binding affinity hisCD44_HABD^20–169 (hisCD44_HABD^20–169): 100% | Substrate for HC transfer (recombinant human TSG-6): No | Activity as substrate for HC transfer (text) (recombinant human TSG-6; Western blot anti-HC1): did not

COc1ccc(C(=O)O)c(NC[C@H](NC(C)=O)[C@@H](O[C@@H]2O[C@H](C(=O)O)[C@@H](O[C@@H]3O[C@H](CO)[C@@H](O)[C@H](O[C@@H]4O[C@H](C(=O)O)[C@@H](O[C@@H]5O[C@H](CO)[C@@H](O)[C@H](O[C@@H]6O[C@H](C(=O)O)[C@@H](O[C@@H]7O[C@H](CO)[C@@H](O)[C@H](O[C@@H]8O[C@H](C(=O)O)[C@@H](O)[C@H](O)[C@H]8O)[C@H]7NC(C)=O)[C@H](O)[C@H]6O)[C@H]5NC(C)=O)[C@H](O)[C@H]4O)[C@H]3NC(C)=O)[C@H](O)[C@H]2O)[C@H](O)[C@H](O)CO)c1 [HA8-2A4MBA]
% of binding to Link_TSG6 compared to the unmodified oligosaccharide of the same length (Link_TSG6; ITC): 21% | Fold reduction in affinity for Link_TSG6 compared to the unmodified oligosaccharide (Link_TSG6; ITC): 4.8 fold | N (Link_TSG6; Table 4, ITC): 1.04 ± 0.08 | ΔG (Link_TSG6; Table 4, ITC): -8.23 ± 0.40 kcal/mol | ΔH (Link_TSG6; Table 4, ITC): -8.06 ± 1.55 kcal/mol | −TΔS (Link_TSG6; Table 4, ITC): −0.16 ± 1.94 kcal•mol^a1 | Kd (Link_TSG6; Table 4, ITC): 1.46 ± 0.96 µM | % Binding affinity Link_TSG6 (Link_TSG6): 21% | % of binding to hisCD44_HABD^20–169 compared to the unmodified oligosaccharide of the same length (hisCD44_HABD^20–169; MST): 141% | Fold increase in affinity for CD44_HABD compared to the unmodified oligosaccharide (hisCD44_HABD^20–169; MST): 1.4 fold | % HAx^AN: percentage of binding affinity (KB) compared to the unmodified oligosaccharide of the same length (hisCD44_HABD^20–169; Table 5, MST): 141% | Kd (hisCD44_HABD^20–169; Table 5, MST, mean ± SD): 36 ± 9 µM | % Binding affinity hisCD44_HABD^20–169 (hisCD44_HABD^20–169): 141% | Substrate for HC transfer (recombinant human TSG-6): Yes

CC(=O)N[C@H]1[C@H](O[C@H]2[C@H](O)[C@@H](O)[C@H](O[C@H]3[C@H](O)[C@@H](CO)O[C@@H](O[C@H]4[C@H](O)[C@@H](O)[C@H](O[C@H]5[C@H](O)[C@@H](CO)O[C@@H](O[C@H]6[C@H](O)[C@@H](O)[C@H](O[C@@H]([C@H](O)[C@H](O)CO)[C@H](CNc7cc[nH]n7)NC(C)=O)O[C@@H]6C(=O)O)[C@@H]5NC(C)=O)O[C@@H]4C(=O)O)[C@@H]3NC(C)=O)O[C@@H]2C(=O)O)O[C@H](CO)[C@@H](O)[C@@H]1O[C@@H]1O[C@H](C(=O)O)[C@@H](O)[C@H](O)[C@H]1O [HA8-3APY]
N (Link_TSG6; Table 4, ITC): 1.19 ± 0.06 | ΔG (Link_TSG6; Table 4, ITC): -8.97 ± 0.07 kcal/mol | ΔH (Link_TSG6; Table 4, ITC): -5.70 ± 0.34 kcal/mol | −TΔS (Link_TSG6; Table 4, ITC): −3.28 ± 0.28 kcal•mol^a1 | Kd (Link_TSG6; Table 4, ITC): 0.27 ± 0.03 µM | % Binding affinity Link_TSG6 (Link_TSG6): 115% | % of binding to hisCD44_HABD^20–169 compared to the unmodified oligosaccharide of the same length (hisCD44_HABD^20–169; MST): 23% | % HAx^AN: percentage of binding affinity (KB) compared to the unmodified oligosaccharide of the same length (hisCD44_HABD^20–169; Table 5, MST): 23% | Kd (hisCD44_HABD^20–169; Table 5, MST, mean ± SD): 220 ± 22 µM | % Binding affinity hisCD44_HABD^20–169 (hisCD44_HABD^20–169): 23% | Substrate for HC transfer (recombinant human TSG-6): Yes

CC(=O)N[C@H]1[C@H](O[C@H]2[C@H](O)[C@@H](O)[C@H](O[C@H]3[C@H](O)[C@@H](CO)O[C@@H](O[C@H]4[C@H](O)[C@@H](O)[C@H](O[C@H]5[C@H](O)[C@@H](CO)O[C@@H](O[C@H]6[C@H](O)[C@@H](O)[C@H](O[C@@H]([C@H](O)[C@H](O)CO)[C@H](CNc7cccc8c7CCC8)NC(C)=O)O[C@@H]6C(=O)O)[C@@H]5NC(C)=O)O[C@@H]4C(=O)O)[C@@H]3NC(C)=O)O[C@@H]2C(=O)O)O[C@H](CO)[C@@H](O)[C@@H]1O[C@@H]1O[C@H](C(=O)O)[C@@H](O)[C@H](O)[C@H]1O [HA8-4AI]
N (Link_TSG6; Table 4, ITC): 1.01 ± 0.02 | ΔG (Link_TSG6; Table 4, ITC): -9.15 ± 0.16 kcal/mol | ΔH (Link_TSG6; Table 4, ITC): -7.02 ± 0.40 kcal/mol | −TΔS (Link_TSG6; Table 4, ITC): −2.13 ± 0.53 kcal•mol^a1 | Kd (Link_TSG6; Table 4, ITC): 0.22 ± 0.05 µM | % Binding affinity Link_TSG6 (Link_TSG6): 141% | % of binding to hisCD44_HABD^20–169 compared to the unmodified oligosaccharide of the same length (hisCD44_HABD^20–169; MST): 37% | % HAx^AN: percentage of binding affinity (KB) compared to the unmodified oligosaccharide of the same length (hisCD44_HABD^20–169; Table 5, MST): 37% | Kd (hisCD44_HABD^20–169; Table 5, MST, mean ± SD): 139 ± 43 µM | % Binding affinity hisCD44_HABD^20–169 (hisCD44_HABD^20–169): 37% | Substrate for HC transfer (recombinant human TSG-6): Yes

CC(=O)N[C@H]1[C@H](O[C@H]2[C@H](O)[C@@H](O)[C@H](O[C@H]3[C@H](O)[C@@H](CO)O[C@@H](O[C@H]4[C@H](O)[C@@H](O)[C@H](O[C@H]5[C@H](O)[C@@H](CO)O[C@@H](O[C@H]6[C@H](O)[C@@H](O)[C@H](O[C@@H]([C@H](O)[C@H](O)CO)[C@H](CNc7ccc8c(c7)CCC8)NC(C)=O)O[C@@H]6C(=O)O)[C@@H]5NC(C)=O)O[C@@H]4C(=O)O)[C@@H]3NC(C)=O)O[C@@H]2C(=O)O)O[C@H](CO)[C@@H](O)[C@@H]1O[C@@H]1O[C@H](C(=O)O)[C@@H](O)[C@H](O)[C@H]1O [HA8-5AI]
% of binding to Link_TSG6 compared to the unmodified oligosaccharide of the same length (Link_TSG6; ITC): 207% | N (Link_TSG6; Table 4, ITC): 0.97 ± 0.02 | ΔG (Link_TSG6; Table 4, ITC): -9.34 ± 0.11 kcal/mol | ΔH (Link_TSG6; Table 4, ITC): -7.43 ± 0.25 kcal/mol | −TΔS (Link_TSG6; Table 4, ITC): −1.91 ± 0.33 kcal•mol^a1 | Kd (Link_TSG6; Table 4, ITC): 0.15 ± 0.03 µM | % Binding affinity Link_TSG6 (Link_TSG6): 207% | % of binding to hisCD44_HABD^20–169 compared to the unmodified oligosaccharide of the same length (hisCD44_HABD^20–169; MST): 96% | % HAx^AN: percentage of binding affinity (KB) compared to the unmodified oligosaccharide of the same length (hisCD44_HABD^20–169; Table 5, MST): 96% | Kd (hisCD44_HABD^20–169; Table 5, MST, mean ± SD): 54 ± 10 µM | % Binding affinity hisCD44_HABD^20–169 (hisCD44_HABD^20–169): 96% | Substrate for HC transfer (recombinant human TSG-6): Yes
